Data: patent US11541030B2, “Methods for the treatment of inflammation associated with infection” (NOXOPHARM LIMITED, priority 2020, dated 2023)

Experiments:
[1] = system: human hTERT fibroblasts; assay: Cell proliferation of hTERT fibroblasts; type: cell-based; details: 10 μM IDX, 72 hours
[2] = system: human STING (PBMCs); assay: STING agonist-induced IL-6 and TNFα in human PBMCs; details: PBMCs from two donors, 2.5 μM IDX pre-treatment, GSK STING agonist 100 nM 6 hours
Experimental: The supernatants were collected and analysed for IL-6 and TNFα production by ELISA. Data shown are as average from 2 independent donors (conducted with biological replicate for each donor), ±SEM.
Similarly, human IP-10, TNF-α and IL-6 production was measured in cell supernatants using human IP-10 OptEIA ELISA kit (BD Biosciences, #555157), human OptEIA TNF-α kit (BD Bioscience, #555212) and human IL-6 OptEIA ELISA Set (BD Biosciences, #555220). Tetramethylbenzidine substrate (ThermoFisher Scientific) was used for quantification of the cytokines on a Fluostar OPTIMA (BMG LABTECH) plate-reader.

[3] = system: TLR4 (LPS); assay: LPS-induced IL-6 in hTERT immortalised foreskin fibroblasts; type: cell-based, human; details: 2.5 uM IDX or H151 pre-treatment, 7 h LPS (100 ng/ml)
Experimental: (§1) IL-6 levels were measured in the supernatants by ELISA.
(§2) To determine the specificity of IDX on STING signalling, human hTERT immortalised foreskin fibroblasts which have functional TLR4 (LPS) and TLR3 (PolyI:C) responsiveness were tested. […] (FIG. 6).

[4] = system: influenza A virus (IAV) driven lung inflammation; assay: Influenza A virus infection in lung TGF-β1 transgenic mice; type: in vivo, mouse; details: 5 mg/kg daily from day 1 after IAV infection until day 3
[5] = system: STING signalling (STING, TBK1, IRF3, p-65); assay: Western blotting of DMXAA-stimulated immortalised mouse bone marrow derived macrophages; type: cell-based; details: 2.5 uM IDX 1 h
Experimental: FIG. 11: Immortalised mouse bone marrow derived macrophages were pre-treated for 1 hour with 2.5 uM IDX prior to stimulation for an indicated amount of time with DMXAA (50 ug/mL), and then lysed and analysed by Western blotting using specific total or phospho-antibody. The results on STING and p-STING are representative of 3 independent experiments.
Western Blotting: Following lysis in RIPA buffer supplemented with complete mini protease inhibitor cocktail (Sigma #4693124001) and phosSTOP inhibitor (Sigma #4906845001), the samples were subjected to SDS-Page analyses, on NuPAGE 4%-12% Bis-Tris Protein Gels (Thermo Scientific) with MES or MOPS running buffer (Thermo Scientific), as previously reported (4). Anti-Sting (#13647), Phospho-Sting (#72971), TBK1 (#3013), phospho-TBK1 (#5483), IKKe (#3416), phospho-IKKe (#8766), IRF-3 (#4302), phosphor-IRF3 (#4947), p-65 (#4764), phospho-p-65 (#3033) antibodies were all from Cell Signalling. Anti-beta-Actin antibodies (#Ab49900) were from Abcam.
To further determine the direct activity of IDX on STING, immortalised mouse bone marrow derived macrophages were stimulated with DMXAA for 1, 2 or 3 hours in the presence of IDX (FIG. 11). The cell lysates were analysed by Western blotting using specific total or phospho-antibody against STING, TBK1, IRF3, and p-65 (FIG. 11). In support of its inhibitory activity on downstream STING signaling, IDX decreased phosphorylation of TBK1 and IRF3 and also STING itself. […] While these effects could all be dependent on TBK1 inhibition by IDX, the inventors also observed decreased p-65 phosphorylation that was not dependent on TBK1 in this cell system (4).

[6] = Fresh versus frozen DMSO stock comparison; type: physicochemical; details: 40 mM stock in DMSO kept frozen at −20C
[7] = system: TLR3 (PolyI:C); assay: PolyI:C-induced IL-6 in hTERT immortalised foreskin fibroblasts; type: cell-based, human; details: 2.5 uM IDX or H151 pre-treatment, 7 h polyI:C (20 ug/ml)
Experimental: as §1, §2

[8] = system: basal STING signalling in Trex1-mutant mice; type: in vivo, mouse; details: 2 mg/kg i.p. daily for 10 days
[9] = system: cGAS/STING (mouse STING-mCherry), IFN-β-luciferase reporter; assay: IFN-β-luciferase reporter in HEK-Sting cells overexpressing cGAS-GFP; details: different doses overnight
Experimental: FIG. 1: Human HEK cells constitutively expressing mouse STING-mCherry were co-transfected with cGAS-GFP and an interferon (IFN)beta-luciferase (A) or an NF-κB-Luc reporter (B) reporter for 3 h prior to being treated overnight with indicated concentration of IDX (in equal volume of DMSO). Firefly luciferase was quantified the next day. Data shown are averaged from 2 (B) or 3 (A) independent experiments in biological triplicate, relative to DMSO only condition control (±SEM).
Cell culture and reagents.
Cell transfections: HEK Sting cells were reverse transfected with 200 ng of IFNb-Luciferase reporter and 400 ng of cGAS-GFP overexpression vector, using 1.8 ul lipofectamine 2000 and ˜600,000 cells, per well of a 96 well plate (as previously reported (8)). After 3 h, the cells were collected and aliquoted in 12 wells of a 96 well plate (for each well of a 6 well plate), and treated with indicated doses of IDX overnight, prior lysis in 40 ul of Glo lysis buffer the next day (Promega). Luciferase assays were carried out using the Promega Luciferase Assay System on a on a Fluostar OPTIMA (BMG LABTECH) plate-reader.

[10] = molecular target: T1, mouse STING (Mus musculus, UniProt Q3TBT3); assay: DMXAA-induced ISRE-luciferase in L929 cells; details: 2.5 uM IDX; DMXAA up to 100 ug/ml
T1 sequence (Q3TBT3 1-378): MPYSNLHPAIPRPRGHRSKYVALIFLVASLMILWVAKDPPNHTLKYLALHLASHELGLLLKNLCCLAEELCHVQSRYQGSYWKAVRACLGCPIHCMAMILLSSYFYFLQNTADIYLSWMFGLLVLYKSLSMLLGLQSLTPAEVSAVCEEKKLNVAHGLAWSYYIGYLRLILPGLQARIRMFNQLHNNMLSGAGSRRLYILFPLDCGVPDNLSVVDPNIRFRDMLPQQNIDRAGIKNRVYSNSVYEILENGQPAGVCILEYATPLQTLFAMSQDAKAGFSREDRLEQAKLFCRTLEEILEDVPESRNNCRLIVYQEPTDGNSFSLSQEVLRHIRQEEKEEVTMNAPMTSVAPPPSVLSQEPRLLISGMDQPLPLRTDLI
Experimental: FIG. 2: Mouse L929 cells stably expressing an IFN-stimulated responsive element (ISRE)-luciferase reporter were pre-treated for 1 h with indicated doses of IDX, prior an 8 h stimulation with 20 ug/ml DMXAA. Cells were lysed and firefly luciferase was quantified at the end of the experiment. Data shown are averaged from 2 independent experiments in biological triplicate, relative to DMXAA and DMSO only condition control (±SEM).
Luciferase assays were carried out at 8 hours. Data were normalised to DMSO+DMXAA only condition, and are shown as averages from 3 independent experiments (conducted with biological replicate), ±SD. Each point represents the mean data for each independent experiment; the column represents the mean of the experiments.
To determine whether IDX could inhibit STING signalling more directly, mouse L929 cells stably expressing an IFN-stimulated-responsive luciferase (ISRE-Luc) were pretreated with IDX at various doses for 1 h, prior to DMXAA stimulation for 8 h (FIG. 2).
Using mouse L929 cells stably expressing an interferon (IFN)-stimulated responsive element (ISRE)-Luciferase construct referred to as LL171 cells (2) and stimulated with the murine STING agonist DMXAA, the inventors speculated that the DMXAA-induced IFN-β production and downstream ISRE-Luciferase expression would only be minimally impacted by IDX if it selectively acted on NF-κB signalling.

[11] = system: TC-1 cells (cGAS-STING); assay: CPT-induced IL-6 in TC-1 cells; details: TC-1, 0.5 μM CPT 48 hours; H151 1.8 μM, IDX 2.5 μM
Experimental: FIG. 7: Mouse TC-1 cells were plated in the presence of 0.5 μM CPT for 48 hours, with the following compounds, where indicated: H151 (1.8 μM), IDX (2.5 μM). IL-6 levels were determined by ELISA. Data shown are averaged from 2 (for H151) or 3 independent experiments (conducted with biological replicate), ±standard deviation (SD). […] Each point represents the mean data for each independent experiment; the column represents the mean of the experiments. *, P≤0.05; **, P≤0.01; ***, P≤0.001; ****, P≤0.0001, ns: non-significant.
Cell culture and reagents.
Murine IP-10 production and IL-6 in supernatant of iBMMs and TC-1 was quantified using Mouse CXCL10/IP-10/CRG-2 Duo Set ELISA (R&D systems, #Dy466) and the IL6 OptE1A ELISA Kit mouse (BD Bioscience, #555240), respectively, according to the manufacturer's protocol. Similarly, human IP-10, TNF-α and IL-6 production was measured in cell supernatants using human IP-10 OptEIA ELISA kit (BD Biosciences, #555157), human OptEIA TNF-α kit (BD Bioscience, #555212) and human IL-6 OptEIA ELISA Set (BD Biosciences, #555220). Tetramethylbenzidine substrate (ThermoFisher Scientific) was used for quantification of the cytokines on a Fluostar OPTIMA (BMG LABTECH) plate-reader.

[12] = molecular target: T2, human STING (Homo sapiens, UniProt Q86WV6, G230A/H232R/R293Q/R71H); assay: STING agonist-driven IP-10 and IFNβ in THP-1 cells; type: cell-based; details: THP-1, 2.5 uM IDX 1 hour
T2 construct: endogenous in cells; host or cells: human THP-1 cells
T2 sequence (Q86WV6 whole entry R71H/G230A/H232R/R293Q): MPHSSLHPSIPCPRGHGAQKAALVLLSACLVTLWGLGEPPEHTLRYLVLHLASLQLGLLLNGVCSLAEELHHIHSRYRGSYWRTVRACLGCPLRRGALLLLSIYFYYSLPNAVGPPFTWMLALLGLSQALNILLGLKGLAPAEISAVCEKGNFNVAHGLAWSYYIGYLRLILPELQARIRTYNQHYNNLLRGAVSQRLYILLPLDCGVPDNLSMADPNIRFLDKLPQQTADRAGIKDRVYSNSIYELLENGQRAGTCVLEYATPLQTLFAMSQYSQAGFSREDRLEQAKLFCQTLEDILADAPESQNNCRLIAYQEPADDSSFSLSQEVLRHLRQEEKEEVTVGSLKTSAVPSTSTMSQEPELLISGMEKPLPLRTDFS

[13] = system: basal Sting signalling; assay: Interferon stimulated genes in primary BMDMs from Trex1-mutant mice (RT-qPCR); details: overnight 1.25 and 2.5 μM IDX

With Oc1ccc(C2=Cc3ccc(O)cc3OC2)cc1 [IDX, 2H-1-Benzopyran-7-0,1,3-(4-hydroxyphenyl)] the “impact on cell proliferation” value [1] was “little impact”, the IL-6 production [2] was “reduced” and the TNFα production [2] was “reduced”. The “IL-6 production, LPS stimulation” value [3] was “only modestly reduced”, the “IL-6 in bronchial alveolar lavages” value [4] was “significantly reduce” and the p-65 phosphorylation ([5]; DMXAA 50 ug/mL 1, 2 or 3 hours) was “decreased”. For the same molecule, the “phosphorylation of IRF3” value ([5]; DMXAA 50 ug/mL 1, 2 or 3 hours) was “decreased”, the “phosphorylation of STING” value ([5]; DMXAA 50 ug/mL 1, 2 or 3 hours) was “decreased” and the “phosphorylation of TBK1” value ([5]; DMXAA 50 ug/mL 1, 2 or 3 hours) was “decreased”. The “shift in size of total STING (STING activation)” value ([5]; DMXAA 50 ug/mL, 3-hour period) was “attenuated”, the “activity of fresh versus frozen IDX stock” value [6] was “did not show any difference of activity” and the “IL-6 production, PolyI:C stimulation” value [7] was “only modestly reduced”. The “Ifi44 expression in the spleen” value [8] was “decreased”, the “Ifih1 expression in the spleen” value [8] was “decreased” and the “Isg15 expression in the spleen” value [8] was “significant decreased”. The “Rsad2 expression in the spleen” value [8] was “decreased”, the “serum TNFα levels” value ([8]; compared to PBS controls) was “decrease” and the “inhibition of IFN-β-luciferase” value [9] was “potent inhibitor”. The “effect of increasing DMXAA on inhibition of ISRE-Luc” value [10] was “did not reverse the inhibition”, the “CPT-induced IL-6 production” value [11] was “significantly reduced” and the “IP-10 production driven by ADU-S100” value ([12]; ADU-S100 30 uM 6 hours) was “strongly inhibited”. The “IP-10 production driven by synthetic STING agonist (GSK)” value ([12]; GSK agonist 100 nM 6 hours) was “strongly inhibited”, the “reduction of IFNβ production” value ([12]; synthetic STING agonist (GSK) 100 nM 6 hours, IFNβ ELISA) was about 50% and the Ifih1 expression [13] was “dose-dependent inhibition”. For the same molecule, the Ifit1 expression [13] was “dose-dependent inhibition” and the Rsad2 expression [13] was “dose-dependent inhibition”.
In the case of CCc1ccc(NC(=O)Nc2c[nH]c3ccccc23)cc1 [H151, reference compound], the “IL-6 production, LPS stimulation” value [3] is reported as “only modestly reduced”, the “IL-6 production, PolyI:C stimulation” value [7] is reported as “only modestly reduced” and the “CPT-induced IL-6 production” value [11] is reported as “strongly reduced”.
With CC(=O)Oc1ccccc1C(=O)O [aspirin] the “CPT-induced IL-6 production” value [11] was “strongly reduced”.
